Measurements as given in PMC7044277 (Nature Communications, 2020).
Several values for one entry are separate records, joined by “and”; a condition that tells them apart may be missing. Identical values can stand only once.

Key:
DRD2 (D2 long receptor) [1] = target: T1, DRD2 (D2 long receptor) (Homo sapiens, UniProt P14416); test: Gαi/o-mediated cAMP inhibition (GloSensor split-luciferase cAMP reporter), HEK293T; type: cell-based; conditions: for Response, Fig_S11b dose-response: individual replicates;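 on all read-outs here: compounds applied 15 min at room temperature, then luciferin plus 400 nM isoproterenol to raise cAMP through endogenous β2-adrenergic receptors, luminescence read 15 min later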
DRD2 F1103.28A = DRD2 F1103.28A (Homo sapiens, UniProt P14416, F110A); type: binding; design: expressed in transfected cells; host or cells: HEK293T (ATCC CRL-11268); conditions: DRD2 F1103.28A
DRD2 (D2 long receptor) [2] = target: T1, DRD2 (D2 long receptor); test: β-arrestin2 recruitment (Tango), HTLA cells; type: cell-based; conditions: for Response, Fig_S11c dose-response: individual replicates
DRD4 (D4.4 variant) [3] = target: T2, DRD4 (D4.4 variant) (Homo sapiens, UniProt P21917); test: β-arrestin2 recruitment (Tango); type: cell-based; conditions: DRD4; Tango; read-out: EC50 ± SEM
T2 sequence (P21917 1-419): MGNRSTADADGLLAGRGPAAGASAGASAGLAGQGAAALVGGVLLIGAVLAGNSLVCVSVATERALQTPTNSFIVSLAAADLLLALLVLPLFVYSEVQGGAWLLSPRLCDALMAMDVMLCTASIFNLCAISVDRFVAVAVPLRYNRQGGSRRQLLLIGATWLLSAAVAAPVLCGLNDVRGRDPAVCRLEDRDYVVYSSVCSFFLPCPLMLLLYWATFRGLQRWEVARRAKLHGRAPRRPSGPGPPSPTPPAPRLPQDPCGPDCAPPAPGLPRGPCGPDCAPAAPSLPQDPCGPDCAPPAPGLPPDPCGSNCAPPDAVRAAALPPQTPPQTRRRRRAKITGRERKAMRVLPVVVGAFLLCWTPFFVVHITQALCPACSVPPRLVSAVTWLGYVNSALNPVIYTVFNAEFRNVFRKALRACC

DRD3 = DRD3 (Homo sapiens, UniProt P35462); test: β-arrestin2 recruitment (Tango); type: cell-based; conditions: DRD3, Tango
DRD4 (D4.4 variant) [4] = target: T2, DRD4 (D4.4 variant); test: Gαi/o-mediated cAMP inhibition (GloSensor); type: cell-based; conditions: DRD4; agonist, cAMP inhibition; read-out: EC50 ± SEM
[5] = target: DRD2 (D2 long receptor) wild-type (Homo sapiens, UniProt P14416); test: Radioligand competition binding, [3H]-N-methylspiperone, HEK293T membranes
[6] = target: T3, DRD4 (D4.4 variant) wild-type (Homo sapiens, UniProt P21917); test: Radioligand competition binding, [3H]-N-methylspiperone; conditions: DRD4; [3H]-methylspiperone (0.8-1.0 nM); read-out: Ki
T3 sequence (P21917 1-419): T2 sequence (P21917 1-419)

DRD3 wild-type = DRD3 wild-type (Homo sapiens, UniProt P35462); test: as above
Chain of DRD3 wild-type (P35462 whole entry): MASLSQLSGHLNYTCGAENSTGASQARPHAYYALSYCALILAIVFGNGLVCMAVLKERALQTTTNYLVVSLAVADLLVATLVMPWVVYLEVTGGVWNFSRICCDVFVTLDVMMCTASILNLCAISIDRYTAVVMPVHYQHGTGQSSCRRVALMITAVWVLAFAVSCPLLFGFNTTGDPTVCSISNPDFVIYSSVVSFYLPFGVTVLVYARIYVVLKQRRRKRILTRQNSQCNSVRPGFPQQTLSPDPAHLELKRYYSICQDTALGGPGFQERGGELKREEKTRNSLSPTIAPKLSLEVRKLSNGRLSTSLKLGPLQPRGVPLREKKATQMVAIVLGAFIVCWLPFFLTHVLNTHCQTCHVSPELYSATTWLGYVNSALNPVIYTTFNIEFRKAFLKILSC

T1 sequence (P14416 whole entry): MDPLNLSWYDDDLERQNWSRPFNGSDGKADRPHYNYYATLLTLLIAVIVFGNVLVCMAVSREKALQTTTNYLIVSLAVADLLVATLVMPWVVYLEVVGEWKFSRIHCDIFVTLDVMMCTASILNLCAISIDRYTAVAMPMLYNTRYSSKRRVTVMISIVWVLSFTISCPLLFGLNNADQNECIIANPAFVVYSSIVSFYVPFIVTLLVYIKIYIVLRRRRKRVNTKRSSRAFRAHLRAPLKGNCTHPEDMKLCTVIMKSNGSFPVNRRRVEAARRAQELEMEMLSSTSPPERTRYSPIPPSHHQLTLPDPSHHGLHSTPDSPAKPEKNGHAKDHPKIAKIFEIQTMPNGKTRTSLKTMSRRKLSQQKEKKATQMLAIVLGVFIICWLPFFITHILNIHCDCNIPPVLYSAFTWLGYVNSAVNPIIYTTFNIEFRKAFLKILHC
Chain of DRD2 (D2 long receptor) wild-type (P14416 whole entry): as above
Chain of DRD2 F1103.28A (P14416 whole entry F110A): as the sequence (P14416 whole entry) above, with F110A counted along it
Chain of DRD3 (P35462 whole entry): as the sequence (P35462 whole entry) above

Structure (SMILES): COc1cccc2cc(C(C)NCC3(O)CCCCC3)oc12.Cl (centres unmarked) [O3LE6]
- EC50 (DRD2 (D2 long receptor) [1]; DRD2, agonist, Gαi/o-mediated cAMP inhibition, read-out: EC50 ± SEM): 0.00538 ± 0.00115 µM
- Emax relative to quinpirole response (DRD2 (D2 long receptor) [1]; DRD2, cAMP inhibition): 91.62%
- Response, Fig_S11b dose-response (DRD2 (D2 long receptor) [1]; Log[Drug] -5): 91.2746 and 93.268 and 92.0221 and 94.9982 and 95.9757 and 91.0458 and 94.8288 and 96.7238 and 94.4943
- Response, Fig_S11b dose-response (DRD2 (D2 long receptor) [1]; Log[Drug] -5.52): 84.7131 and 82.1661 and 88.7829 and 90.1533 and 94.7432 and 84.076 and 96.9467 and 103.412 and 92.2649
- Response, Fig_S11b dose-response (DRD2 (D2 long receptor) [1]; Log[Drug] -6): 91.1916 and 89.8903 and 94.4031 and 97.8031 and 85.4785 and 88.6659 and 101.461 and 101.183 and 85.6322
- Response, Fig_S11b dose-response (DRD2 (D2 long receptor) [1]; Log[Drug] -6.52): 79.2314 and 90.7486 and 80.9756 and 96.6556 and 102.308 and 66.8216 and 90.3141 and 94.5501 and 81.1733
- Response, Fig_S11b dose-response (DRD2 (D2 long receptor) [1]; Log[Drug] -7): 93.1296 and 79.0099 and 76.7951 and 89.8559 and 81.4411 and 87.5184 and 97.0582 and 96.7796 and 87.8617
- Response, Fig_S11b dose-response (DRD2 (D2 long receptor) [1]; Log[Drug] -7.52): 73.6389 and 59.4361 and 66.496 and 84.9685 and 73.1539 and 73.1114 and 79.2783 and 81.1733 and 101.35
- Response, Fig_S11b dose-response (DRD2 (D2 long receptor) [1]; Log[Drug] -8): 62.703 and 59.1593 and 45.4826 and 64.1867 and 54.9645 and 52.4996 and 72.7571 and 85.8552 and 67.9638
- Response, Fig_S11b dose-response (DRD2 (D2 long receptor) [1]; Log[Drug] -8.52): 23.5556 and 18.5998 and 3.594 and 27.9779 and 38.8575 and 46.6347 and 39.4267 and 57.0952 and 34.8006
- Response, Fig_S11b dose-response (DRD2 (D2 long receptor) [1]; Log[Drug] -9): 24.2477 and 23.1957 and 12.4536 and 22.6655 and 22.9205 and 23.0055 and 26.2172 and 30.5646 and 12.7847
- Response, Fig_S11b dose-response (DRD2 (D2 long receptor) [1]; Log[Drug] -10.52): -0.1987 and -7.8123
- Response, Fig_S11b dose-response (DRD2 (D2 long receptor) [1]; Log[Drug] -11): 6.197 and 12.6784 and -7.6785 and 0.5663
- Response, Fig_S11b dose-response (DRD2 (D2 long receptor) [1]; Log[Drug] -11.52): -9.1412 and 3.4 and -7.0575 and 6.319
- Response, Fig_S11b dose-response (DRD2 (D2 long receptor) [1]; Log[Drug] -12): -5.1267 and 0.6872 and -14.1523 and 6.559 and 2.691 and 2.479 and -11.9066 and 21.591 and -2.8216
- pKi ± SEM (DRD2 F1103.28A): 5.49±0.16
- Ki (DRD2 F1103.28A; read-out: Ki): 3.24 µM
- Emax relative to quinpirole response (DRD2 (D2 long receptor) [2]; DRD2, Tango): 109.80%
- EC50 (DRD2 (D2 long receptor) [2]; DRD2, β-arrestin2 recruitment (Tango), read-out: EC50 ± SEM): 0.166 ± 0.0764 µM
- response, Fig_S11c dose-response source data (DRD2 (D2 long receptor) [2]; Fig_S11c, Log[Drug] -5, replicate values): 121.198 and 127.001 and 100.932 and 110.321 and 113.709 and 113.34 and 97.1155
- Response, Fig_S11c dose-response (DRD2 (D2 long receptor) [2]; Log[Drug] -6.52): 92.1418 and 88.9307
- Response, Fig_S11c dose-response (DRD2 (D2 long receptor) [2]; Log[Drug] -7): 77.394 and 77.7575 and 68.5542 and 65.6395 and 57.0787 and 60.1228 and 51.2599 and 46.3298
- Response, Fig_S11c dose-response (DRD2 (D2 long receptor) [2]; Log[Drug] -7.52): 38.329 and 41.6231 and 33.61 and 32.4962 and 32.299 and 34.1126 and 16.8232 and 31.0553 and 35.575
- Response, Fig_S11c dose-response (DRD2 (D2 long receptor) [2]; Log[Drug] -8): 11.9901 and 12.2692 and 10.2755 and 10.8849 and 10.4485 and 8.443 and 10.7171 and 9.707 and 5.469
- Response, Fig_S11c dose-response (DRD2 (D2 long receptor) [2]; Log[Drug] -8.52): 3.649 and 3.804 and 4.186 and 3.535 and 4.03 and 2.927 and 1.899 and 5.413 and 2.845
- Response, Fig_S11c dose-response (DRD2 (D2 long receptor) [2]; Log[Drug] -9): 2.6531 and 2.675 and 3.049 and 2.914 and 2.704 and 2.807 and 3.034 (2×) and 2.494
- Response, Fig_S11c dose-response (DRD2 (D2 long receptor) [2]; Log[Drug] -9.52): 2.467 and 2.869 and 2.678 and 2.37 and 2.33 and 2.2184 and 1.931 and 2.13 and 2.319
- Response, Fig_S11c dose-response (DRD2 (D2 long receptor) [2]; Log[Drug] -10): 2.843 and 2.654 and 2.976 and 2.168 and 2.347 and 2.222 and 3.804 and 1.194 and 2.499
- Response, Fig_S11c dose-response (DRD2 (D2 long receptor) [2]; Log[Drug] -10.52): 2.259 and 2.282 and 2.549 and 2.128 and 2.141 (2×) and 0.6309 and 3.246 and 2.4849
- Response, Fig_S11c dose-response (DRD2 (D2 long receptor) [2]; Log[Drug] -11): 2.232 and 3.428 and 2.336 and 2.237 and 2.197 and 2.087 and 5.0906 and 1.927 and 3.601
- Response, Fig_S11c dose-response (DRD2 (D2 long receptor) [2]; Log[Drug] -11.52): 2.2032 and 3.321 and 2.444 and 2.452 and 2.181 and 2.306 and 0.82 and 1.028 and 2.688
- Response, Fig_S11c dose-response (DRD2 (D2 long receptor) [2]; Log[Drug] -12): 2.5295 and 2.339 and 2.21 and 2.47 and 2.197 and 2.157 and 4.362 and 2.319 and 1.955
- EC50 (DRD4 (D4.4 variant) [3]): > 10 µM
- Emax relative to quinpirole response (DRD3): 80.01%
- EC50 (DRD3; read-out: EC50 ± SEM): 5.48 ± 3.94 µM
- EC50 (DRD4 (D4.4 variant) [4]): > 10 µM
- Ki ([5]; DRD2, [3H]-methylspiperone (0.8-1.0 nM), read-out: Ki): 4.78 µM
- pKi ± SEM ([5]; DRD2 wild-type): 5.32±0.22
- Ki [6]: > 10 µM
- Ki (DRD3 wild-type; DRD3, [3H]-methylspiperone (0.8-1.0 nM), read-out: Ki): 1.07 µM
- pKi ± SEM (DRD3 wild-type; DRD3 wild-type): 5.97±0.13
